Patent US4309432A, “Compositions for treating glaucoma containing a carbostyril” (priority 1979, dated 1982)
Where “and” joins values, the source holds several entries; their conditions need not be identical. Identical values can stand only once. Counter-ions that a name gives are not always drawn.

Experiments:
intraocular pressure = test: Efficacy Test 3: intraocular pressure in normal rabbits (Alcon pneumatic tonometer); type: in vivo, rabbit (male New Zealand Albino); conditions: for Intraocular pressure 30 minutes after instillation, average / Intraocular pressure 1 hour after instillation, average / Intraocular pressure 30 minutes after instillation / Intraocular pressure 1 hour after instillation: 1% (W/V), 100 μl
Experimental: Male rabbits of New Zealand Albino strain, weighing 1.8 to 2.5 kg, are used as experimental animals. Intraocular pressure is measured with an Alcon pneumatic tonometer without local anesthesia, while holding the animal in a cylindrical rabbit holder.
The test compound is dissolved in a physiological solution of NaCl to a concentration of 1% (W/V), and the resulting solution is adjusted to a pH of 6.5 to 7.0 with a 0.01 N aqueous NaOH solution. The solution is instilled to one of the eyes of the animal in an accurate amount of 100 μl with a microsyringe after measuring the intraocular pressure of the eye. The eyelid is held closed for 1 minute after the instillation to prevent the escape of the solution.
The efficacy of the test compound is determined by measuring the intraocular pressure 30 minutes and 1 hour after the instillation and comparing the measurements with the pressure measured before the instillation. A 100 μl quantity of physiological saline containing no test compound is similarly tested on a control group.

mice = test: Acute Toxicity Test, intravenous, mice; type: in vivo
Experimental: (§1) Active compounds useful for the glaucoma treating compositions of this invention are intravenously administered to mice to test the compounds for acute toxicity.
(§2) Other active compounds of this invention are also tested for acute toxicity in the same manner as above, i.e., by intravenously administering them to mice. The LD50 values determined are all not lower than about 40 mg/kg.

[1] = Acute toxicity, oral administration, male rats; conditions: rat, in vivo
From the text: *Determined by the oral administration of Compound C to male rats.

[2] = Acute Toxicity Test, intravenous, mice; type: in vivo; conditions: mouse, in vivo
Experimental: as §1, §2

O=C1CCc2c(cccc2OCC(O)CNC2CCCCC2)N1 (centres unmarked) [Compound G, 5-(2-Hydroxy-3-cyclohexylamino)propoxy-3,4-dihydrocarbostyril hydrochloride]
Intraocular pressure 30 minutes after instillation, average (intraocular pressure; average of animals): 16.5 mm Hg | Intraocular pressure 1 hour after instillation, average (intraocular pressure; average of animals): 16.5 mm Hg

CC(C)(C)NCC(O)COc1cccc2c1CCC(=O)N2 (centres unmarked) [Compound A, 5-(2-Hydroxy-3-tert-butylamino)propoxy-3,4-dihydrocarbostyril hydrochloride]
Intraocular pressure 30 minutes after instillation, average (intraocular pressure; average of animals): 17.2 mm Hg | Intraocular pressure 1 hour after instillation, average (intraocular pressure; average of animals): 17.4 mm Hg | LD50 (mice): 54.4 mg/kg

C=CCOc1ccc(OCC(O)CNC(C)(C)C)c2c1NC(=O)CC2 (centres unmarked) [Compound M, 8-Allyloxy-5-(2-hydroxy-3-tert-butylamino)propoxy-3,4-dihydrocarbostyril hydrochloride]
Intraocular pressure 30 minutes after instillation, average (intraocular pressure; average of animals): 19.0 mm Hg | Intraocular pressure 1 hour after instillation, average (intraocular pressure; average of animals): 18.0 mm Hg | Intraocular pressure 30 minutes after instillation (intraocular pressure; individual animal): 19 mm Hg | Intraocular pressure 1 hour after instillation (intraocular pressure; individual animal): 18 mm Hg

CCNCC(O)COc1cccc2c1CCC(=O)N2 (centres unmarked) [Compound E, 5-(2-Hydroxy-3-ethylamino)propoxy-3,4-dihydrocarbostyril maleate]
Intraocular pressure 30 minutes after instillation, average (intraocular pressure; average of animals): 18.0 mm Hg | Intraocular pressure 1 hour after instillation, average (intraocular pressure; average of animals): 17.0 mm Hg

C#CCOc1ccc(OCC(O)CNCCc2ccc(OC)c(OC)c2)c2c1NC(=O)CC2.O=C(O)C(=O)O (stereo not drawn) [Compound K, 8-Propynyloxy-5-[2-hydroxy-3-(β-3,4-dimethoxyphenethylamino)]propoxy-3,4-dihydrocarbostyril oxalate]
Intraocular pressure 30 minutes after instillation, average (intraocular pressure; average of animals): 18.5 mm Hg | Intraocular pressure 1 hour after instillation, average (intraocular pressure; average of animals): 18.0 mm Hg | Intraocular pressure before instillation, average (intraocular pressure; average of animals, baseline): 19.5 mm Hg | Intraocular pressure 30 minutes after instillation (intraocular pressure; individual animal): 19 mm Hg and 18 mm Hg | Intraocular pressure 1 hour after instillation (intraocular pressure; individual animal): 18 mm Hg | Intraocular pressure before instillation (intraocular pressure; individual animal, baseline): 20 mm Hg and 19 mm Hg

CCN1C(=O)CCc2c(OCC(O)CNC3CCCCC3)cccc21 (centres unmarked) [Compound H, 1-Ethyl-5-(2-hydroxy-3-cyclohexylamino)propoxy-3,4-dihydrocarbostyril hydrochloride]
Intraocular pressure 30 minutes after instillation, average (intraocular pressure; average of animals): 15.5 mm Hg | Intraocular pressure 1 hour after instillation, average (intraocular pressure; average of animals): 15.5 mm Hg

COc1ccc(CCNCC(O)COc2ccc(OCC(C)=O)c3c2CCC(=O)N3)cc1OC (stereo not drawn) [Compound C, 8-Methylcarbonylmethoxy-5-[2-hydroxy-3-(β-3,4-dimethoxyphenethylamino)]propoxy-3,4-dihydrocarbostyril oxalate]
LD50 [1]: 1260 mg/kg | Intraocular pressure 30 minutes after instillation, average (intraocular pressure; average of animals): 17.0 mm Hg | Intraocular pressure 1 hour after instillation, average (intraocular pressure; average of animals): 17.0 mm Hg

CC(C)(C)NCC(O)COc1cccc2[nH]c(=O)ccc12 (centres unmarked) [Compound B, 5-(2-Hydroxy-3-tert-butylamino)propoxycarbostyril hydrochloride]
Intraocular pressure 30 minutes after instillation, average (intraocular pressure; average of animals): 17.0 mm Hg | Intraocular pressure 1 hour after instillation, average (intraocular pressure; average of animals): 16.5 mm Hg | LD50 [2]: 44.6 mg/kg

COc1ccc(CCNCC(O)COc2ccc(NC(C)=O)c3c2CCC(=O)N3)cc1OC (stereo not drawn) [Compound L, 8-Acetylamino-5-[2-hydroxy-3-(β-3,4-dimethoxyphenethylamino)]propoxy-3,4-dihydrocarbostyril hydrochloride]
Intraocular pressure 30 minutes after instillation, average (intraocular pressure; average of animals): 18.0 mm Hg | Intraocular pressure 1 hour after instillation, average (intraocular pressure; average of animals): 17.5 mm Hg | Intraocular pressure 30 minutes after instillation (intraocular pressure; individual animal): 18 mm Hg

O=C1CCc2c(cccc2OCC(O)CNCc2ccccc2)N1 (centres unmarked) [Compound F, 5-(2-Hydroxy-3-benzylamino)propoxy-3,4-dihydrocarbostyril hydrochloride]
Intraocular pressure 30 minutes after instillation, average (intraocular pressure; average of animals): 18.5 mm Hg | Intraocular pressure 1 hour after instillation, average (intraocular pressure; average of animals): 18.5 mm Hg

COc1ccc(CCNCC(O)COc2ccc(O)c3c2CCC(=O)N3)cc1OC (stereo not drawn) [Compound D, 8-Hydroxy-5-[2-hydroxy-3-(β-3,4-dimethoxyphenethylamino)]propoxy-3,4-dihydrocarbostyril hydrochloride]
Intraocular pressure 30 minutes after instillation, average (intraocular pressure; average of animals): 17.0 mm Hg | Intraocular pressure 1 hour after instillation, average (intraocular pressure; average of animals): 14.0 mm Hg | Intraocular pressure 30 minutes after instillation (intraocular pressure; individual animal): 17 mm Hg

CC(C)NCC(O)COc1cccc2c1NC(=O)CC2 (centres unmarked) [Compound I, 8-(2-Hydroxy-3-isopropylamino)propoxy-3,4-dihydrocarbostyril hydrochloride]
Intraocular pressure 30 minutes after instillation, average (intraocular pressure; average of animals): 16.5 mm Hg | Intraocular pressure 1 hour after instillation, average (intraocular pressure; average of animals): 16.5 mm Hg | LD50 [2]: 81.6 mg/kg

COc1ccc(CCNCC(O)COc2ccc(NC(N)=O)c3c2CCC(=O)N3)cc1OC (stereo not drawn) [Compound J, 8-Ureido-5-[2-hydroxy-3-(β-3,4-dimethoxyphenethylamino)]propoxy-3,4-dihydrocarbostyril hydrochloride]
Intraocular pressure 30 minutes after instillation, average (intraocular pressure; average of animals): 17.5 mm Hg | Intraocular pressure 1 hour after instillation, average (intraocular pressure; average of animals): 17.0 mm Hg | LD50 [2]: 143 mg/kg

C=CCN1C(=O)CCc2c(OCC(O)CNC(C)(C)C)cccc21 (centres unmarked) [Compound N, 1-Allyl-5-(2-hydroxy-3-tert-butylamino)propoxy-3,4-dihydrocarbostyril hydrochloride]
Intraocular pressure 30 minutes after instillation, average (intraocular pressure; average of animals): 17.5 mm Hg | Intraocular pressure 1 hour after instillation, average (intraocular pressure; average of animals): 16.5 mm Hg
